Test results: article PMC4414571, “Peptides of Presenilin-1 Bind the Amyloid Precursor Protein Ectodomain and Offer a Novel and Specific Therapeutic Approach to Reduce ß-Amyloid in Alzheimer’s Disease” (PLoS ONE, 2015)
Entries after “also recorded” stand apart in the source; their conditions may differ. Read-outs that look alike come from different tables or passages of the source. Ends that are not written are not given here.

Key:
[1] = system: Aβ production in cell cultures; details: cells cultured in media containing excess of the FLAG-coupled NH2-terminal domain of PS-1 (residues 1–80), ref [13], cited from earlier work
Description: In that work we had selected the NH2-t ... || Peptide P1, comprising the first 80 amino acids of PS-1, scrambled P1 and the two large oligopeptides corresponding to the two halves of the human P1 (peptides P2 and P3, Table 1), were first synthesized and tested in vitro for their effect on the production of Aβ40 and 42.

[2] = target: T1, soluble ectodomain of APP (APPs, APP 695) (Homo sapiens, UniProt P05067); test: Biolayer interferometry, biotinylated peptides on streptavidin biosensors vs purified soluble APP (APPs); assay type: binding; details: 30°C, biotinylated peptide on SA biosensors; for koff / kon / Kd: 1:1 model; for Kd: k off/k on, Kinetics Buffer (1X PBS, 0.002% Tween-20, 0.01% BSA)
T1 construct: host or cells: Sf9 insect cells (baculovirus), conditioned medium
Procedure: Sf9 cells (ATCC CRL 1711) were grown in TMN-FH complete medium (Pharmingen) in suspension and infected at a multiplicity of infection of 2 with a titred stock of recombinant virus expressing human APP695. Conditioned media and/or cells were harvested 6 days after infection. Cells and debris were removed by centrifugation (at 1000 x g for 15 min).
Recombinant baculoviruses were produced according to published protocols. A fragment containing full-length APP 695 was subcloned into the baculovirus transfer vector pBlueBac3 (Invitrogen). The resulting recombinant vector was co-transfected with baculovirus DNA into sf9 cells. Recombinant APP expression was verified by Western blot hybridization using mouse MAb against human APP (Cat # MAB348, Millipore).
APPs was purified from baculovirus conditioned medium to >95% purity, as assessed by densitometry analysis of Coomassie stained SDS PAGE gels, by Arvys Proteins, Stamford, CT, using the following strategy. The conditioned medium proteins were purified by heparin-affinity chromatography, followed by two gel filtration chromatography steps over HiPrep Sephacryl S300 columns and two steps of anion exchange chromatography on HiTrapQ columns.
The binding affinities of peptides P1, scrambled P1, P4, P5, P7 and P8 for the soluble ectodomain of APP or control IgG were measured by biolayer interferometry on an Octet RED96 System (Pall FortéBio Corp., Menlo Park, CA). This system monitors interference of light reflected from two sources (an internal reflection surface and the liquid/solid interface of a fiber optic sensor) to measure the rate of binding of molecules to the biosensor surface.
Peptides were synthesized and biotinylated at the NH2-terminus by Dr. Michael Freydkin at Biopeptides, Inc., San Diego, CA, and purified to >95% by HPLC. Biotinylated peptides were loaded onto Streptavidin (SA) biosensors (Pall FortéBio Corp.) at empirically determined concentrations. All affinity measurements were carried out in Kinetics Buffer (KB) (1X PBS, 0.002% Tween-20, and 0.01% BSA) at 30°C. Typically, the biosensors were pre-equilibrated in KB for 120s, loaded with a biotinylated peptide at optimal concentrations and times, quenched with 10 μg/ml biocytin in KB for 180s, brought to baseline in KB for 120s and transferred to wells containing purified APPs (0–200 nM). Multiple negative controls were run for each peptide including association buffer only (no APP) or with IgG replacing APP. Binding kinetics were calculated using the FortéBio Data Analysis v7.1 software. The association (k on) and dissociation (k off) rate constants were obtained by fitting the association and dissociation data to a 1:1 model. Binding affinity, KD, was calculated as k off/k on.

[3] = system: NICD / γ-secretase in Jurkat cells; test: NICD levels in extracts of Jurkat cells by ELISA (γ-secretase activity); details: 24 h, percent control
Procedure: Jurkat cells (Sigma) were cultured in RPMI 1640 medium supplemented with 10% FCS, 2 mM L-glutamine, penicillin and streptomycin at 37°C in the presence of 5% CO2. […] After harvesting the cells, extracts were prepared by sonication in lysis buffer (Cell Signaling Technologies) supplemented with 1mM PMSF and complete protease inhibitor cocktail (Roche). The solubilized extracts were then used in ELISA assays to determine NICD levels, as a measure of γ-secretase activity, using the PathScan Cleaved Notch 1 (Val 1744) sandwich ELISA kit (Cell Signaling Technologies) according to the manufactuer’s protocols.

[4] = system: IMR-32 human neuroblastoma cell-line (endogenous Aβ40 or 42 production); test: Endogenous Aβ40 and 42 production in IMR-32 culture medium by ELISA; assay type: cell-based; details: for Effect on Aβ40 and 42 production in vitro (in words): 0–5 μM peptide, 24 h, IMR-32 culture medium, ELISA; for Production of total Aβ and of Aβ 40 and 42 (summary in words): Discussion summary, stated as in vitro and in vivo (mThy1-hAPP Tg mice)
Procedure: A human neuroblastoma cell-line, IMR-32 (ATCC CCL-127) was cultured in MEM Earles medium containing 10% fetal bovine serum, 2 mM L-glutamine in the presence of penicillin and streptomycin. Equal numbers of cells (0.3 x 10^6 per well) were plated on 6-well plates overnight. Peptides (0–5 μM) were added to fresh culture medium (500 μl per well) and left in the incubator for 24 hours, after which the culture medium from each well was removed and stored at -80°C in the presence of 4-(2-Aminoethyl) benzenesulfonyl fluoride hydrochloride (AEBSF) and protease inhibitors. Prior to use, the culture medium was centrifuged in an eppendorf microfuge for 5 min at 4°C, the supernatant diluted with an equal volume of sample diluent buffer (Wako) and analyzed for the presence of Aβ40 or 42 using a commercial ELISA kit (Wako).

[5] = system: NICD (γ-secretase activity); test: NICD levels in neocortex of treated mThy1-hAPP mice by Western blot (γ-secretase activity); assay type: in vivo, mouse; details: peptide-infused mThy1-hAPP mice vs PBS, n = 5, two weeks after end of treatment
Procedure: Extracts of neocortex of mThy1-hAPP mice treated with P4, P8 or PBS only were electrophoresed on SDS gels and Western blotted with primary rabbit antibodies against NICD (Cat# 07–1232, Millipore) at 4°C overnight, followed by horse-radish peroxidase (HRP)-conjugated goat anti-rabbit IgG (Bio-Rad). The immunoreactive bands were detected by chemiluminescence (Thermo Scientific).
An optimal therapeutic approach to AD would avoid producing serious effects on other biochemically and physiologically important processes, as would occur if the cleavages of any of the other substrates of β- or γ-secretase were affected in the process of reducing the levels of Aβ. An especially well-studied example is the γ-secretase activity of PS-1 that is critically involved in the final enzymatic cleavage of Aβ from APP; it also functions in an essential developmental process that generates NICD from Notch. […] At the same time we analyzed the same tissue samples for their β-secretase (BACE-1) activity and APP expression. Extracts were prepared of the neocortex of Tg mice that had been treated with P4, P8 or PBS, and the levels of NICD were determined by Western blot analysis with a primary rabbit Ab against NICD. […]

[6] = system: Aβ deposits in mThy1-hAPP transgenic mice; test: Plaque load / Aβ immunolabeling in brain sections of mThy1-hAPP Tg mice after intraventricular peptide infusion; assay type: in vivo, mouse; details: 10 μM in PBS, two weeks infusion then two weeks rest, vs PBS controls
Procedure: These mice express mutated (London V717I and Swedish K670M/N671L) hAPP751 under the control of the neuronal murine (m)Thy-1 promoter. […] The Tg lines were maintained by crossing heterozygous Tg mice with non-Tg wild type C57BL/6 x DBA/2 F1 breeders. All animal studies were carried out according to protocols approved by the Institutional Animal Care and Use Committee of the University of California San Diego. […]
For analysis of Aβ deposits, blind-coded 40 μm vibratome sections were immunolabeled as previously described with mouse monoclonal antibodies (MAb) against human Aβ (clone 82E1, prepared against Aβ 1–16) followed by incubation with fluorescein isothiocyanate (FITC)-conjugated anti-mouse IgG (Vector Laboratories). Sections were imaged with a laser scanning confocal microscope (MRC1024, BioRad) as described and digital images were analyzed with the NIH Image 1.43 program to determine the percent area occupied by Aβ deposits. Three immunolabeled sections were analyzed per mouse and the average of individual measurements was used to calculate group means. […]

[7] = system: Aβ 1–40 and 1–42 in mThy1-hAPP mouse brains; test: Aβ40- and Aβ42-specific ELISA of neocortex extracts of peptide-treated mThy1-hAPP mice; assay type: in vivo; details: vs PBS, 10 μM peptide infusion, two weeks then two weeks rest
Procedure: These mice express mutated (London V717I and Swedish K670M/N671L) hAPP751 under the control of the neuronal murine (m)Thy-1 promoter. […] The Tg lines were maintained by crossing heterozygous Tg mice with non-Tg wild type C57BL/6 x DBA/2 F1 breeders. All animal studies were carried out according to protocols approved by the Institutional Animal Care and Use Committee of the University of California San Diego.
Age-matched male and female mThy1-hAPP Tg mice at 6 months of age were anesthetized and under sterile conditions, a 26 gauge stainless steel cannula (Alzet Brain Infusion kit 3, Durect Corp) was stereotaxically implanted into the right ventricle using the following coordinates: –1 mm using Bregma as a reference, lateral, 1.0 mm, depth, -3.0 mm, and secured to the cranium using superglue. The cannula was connected via a 5 mm coil of V3 Biolab vinyl tubing to a model 1002 osmotic minipump (Alzet, Durect Corp) surgically placed subcutaneously beneath the shoulder blades and surgically closed. The solutions (each peptide at 10 μM in PBS) were delivered directly into lateral ventricles at a flow rate of 0.25 μl per hour (100 μl total volume) for two weeks. […]
Samples from mouse cortex and hippocampus were homogenized in ice-cold, 6 M guanidine-HCl according to published protocols. Quantification of Aβ 1–40 and 1–42 was carried out by ELISA kits (Invitrogen). […]

T1 sequence (P05067 18-612 isoform P05067-4 limits assumed): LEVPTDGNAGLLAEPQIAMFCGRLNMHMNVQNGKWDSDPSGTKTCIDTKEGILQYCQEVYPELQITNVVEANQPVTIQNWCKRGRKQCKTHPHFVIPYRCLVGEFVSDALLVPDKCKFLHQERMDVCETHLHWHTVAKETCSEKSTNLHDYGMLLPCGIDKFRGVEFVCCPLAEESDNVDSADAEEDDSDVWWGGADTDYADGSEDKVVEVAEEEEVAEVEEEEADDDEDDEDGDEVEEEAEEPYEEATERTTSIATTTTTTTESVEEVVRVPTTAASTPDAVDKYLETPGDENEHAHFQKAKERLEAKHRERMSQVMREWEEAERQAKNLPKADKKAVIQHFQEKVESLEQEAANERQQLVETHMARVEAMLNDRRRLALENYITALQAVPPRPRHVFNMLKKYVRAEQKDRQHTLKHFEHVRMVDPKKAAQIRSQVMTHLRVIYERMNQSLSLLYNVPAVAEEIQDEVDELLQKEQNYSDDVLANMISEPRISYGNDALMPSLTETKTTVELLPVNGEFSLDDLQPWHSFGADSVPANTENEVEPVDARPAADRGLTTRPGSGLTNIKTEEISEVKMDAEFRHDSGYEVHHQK

FLAG-PS-1 (residues1-80): bacterially produced FLAG-PS-1 (residues1-80)
Aβ production (in words) [1]: robust inhibition of Aβ
Aβ production (in words) ([1]; listed as NH2-terminal domain of PS-1 (residues 1–80) coupled to the FLAG protein): markedly inhibited

DEEEDEELTLKYGAK [Peptide P7]
koff ([2]; Kinetics Buffer): 0.00105 s⁻¹
kon ([2]; Kinetics Buffer): 104000 M⁻¹ s⁻¹
Kd [2]: 0.0101 µM

CC(C)[C@H](O)C(=O)N[C@@H](C)C(=O)N[C@@H]1C(=O)N(C)CCc2ccccc21 [Semagacestat, reference compound]
NICD levels in Jurkat cells, γ-secretase inhibitor (in words) ([3]; 0–100 nM, n = 2): inhibited in a dose-dependent manner

SNGRPQGNSRQVVEQ [Peptide P5, residues 51–65 of PS-1]
Effect on Aβ40 and 42 production in vitro (in words) [4]: no significant effect on Aβ production
Production of total Aβ and of Aβ 40 and 42 (summary in words) [4]: did not reduce Aβ
Binding to purified APPs (in words) ([2]; Kinetics Buffer): no significant binding to APP

RRSLGHPEPLSNGRP [Peptide P4]
koff ([2]; Kinetics Buffer): 0.00134 s⁻¹
kon ([2]; Kinetics Buffer): 83600 M⁻¹ s⁻¹
Kd [2]: 0.0161 µM
NICD levels in neocortex (in words) [5]: not accompanied by any significant changes in the levels of NICD
NICD levels in Jurkat cells, peptides (in words) ([3]; 0–10 μM, 450 nm, n = 2–3): no appreciable change in the levels of NICD

RRSLGH [Peptide P9, residues 41–46 of PS-1, fragment of P4]
Effect on Aβ40 and 42 production in vitro (in words) [4]: did not give a significant reduction in Aβ in vitro; also recorded: had not shown a reduction of Aβ in vitro
Aβ immunolabeling / Aβ load in mouse brain (in words) [6]: less effective but still produced statistically significant reductions in Aβ levels compared to PBS controls in the neocortex
Aβ40/42 in neocortex extracts by ELISA (in words) [7]: gave reductions in Aβ load, but to a lesser extent

PEPLSNGRP [Peptide P10, residues 47–55 of PS-1, fragment of P4]
Effect on Aβ40 and 42 production in vitro (in words) [4]: did not give a significant reduction in Aβ in vitro; also recorded: had not shown a reduction of Aβ in vitro
Aβ immunolabeling / Aβ load in mouse brain (in words) [6]: less effective but still produced statistically significant reductions in Aβ levels compared to PBS controls in the neocortex
Aβ40/42 in neocortex extracts by ELISA (in words) [7]: gave reductions in Aβ load, but to a lesser extent

RQVVEQDEEEDEELT [Peptide P6, residues 60–74 of PS-1]
Effect on Aβ40 and 42 production in vitro (in words) [4]: substantial dose-dependent reduction in Aβ40 and 42
Production of total Aβ and of Aβ 40 and 42 (summary in words) [4]: markedly reducing the production of total Aβ and of Aβ 40 and 42 in vitro and in vivo
